The values that follow come from ChEMBL document CHEMBL4831514, “Novel betulin dicarboxylic acid ester derivatives as potent antiviral agents: Design, synthesis, biological evaluation, structure-activity relationship and in-silico study” (Eur J Med Chem, 2021).

This assay deals with Vesicular stomatitis virus. The assay can be described thus: Antiviral activity against Vesicular stomatitis virus Indiana infected in A549 cells assessed as inhibition of viral adsorption at early stage of replication treated for 1 hr during viral infection followed by replacement with fresh medium and measured after 48 hrs by MTT assay. In kind it is functional, organism-based. On the technique in general: Tetrazolium dyes change colour on reduction, which living cells bring about.

Structures are written as SMILES. Calls of active or inactive are those of the source. The rule behind the calls is not given here.

In the case of `C#CCNC(=O)CCC(=O)OC[C@]12CC[C@@H](C(=C)C)C1[C@H]1CC[C@@H]3[C@@]4(C)CC[C@H](O)C(C)(C)[C@@H]4CC[C@@]3(C)[C@]1(C)CC2` (single isomer, unassigned), the outcome was inactive.
